Experimental data reported in the supplement of paper PMC10733146.

Columns and labels:
Test in all cases: viability relative to DMSO control (fraction); higher = less drug effect (more viable cells)
Conditions in all cases: 48 h
[1] = test system: primary T-NHL patient cells (S058)
Procedure, shortened: (§1)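 Cells were incubated for 48 h at 37 °C and 5% CO2 in RPMI-1640 with penicillin/streptomycin, L-glutamine and human serum, at 4 × 10^4 cells per well in 384-well plates with compounds pre-plated at five concentrations, one well each. These were primary mononuclear tumour cells, fresh or cryopreserved, Ficoll-isolated from blood or bone marrow or obtained from processed lymph node. Viability values are CellTiter-Glo luminescence relative to the median of 16 inner DMSO wells.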

[2] = test system: primary AML patient cells (S037)
Procedure, shortened: as §1

[3] = test system: primary AML patient cells (S091)
Procedure, shortened: as §1

[4] = test system: primary AML patient cells (S012)
Procedure, shortened: as §1

[5] = test system: primary AML patient cells (S002)
Procedure, shortened: as §1

[6] = test system: primary AML patient cells (S017)
Procedure, shortened: as §1

[7] = test system: primary AML patient cells (S021)
Procedure, shortened: as §1

[8] = test system: primary DLBCL patient cells (S076)
Procedure, shortened: as §1

[9] = test system: primary AML patient cells (S011)
Procedure, shortened: as §1

[10] = test system: primary AML patient cells (S006)
Procedure, shortened: as §1

[11] = test system: primary AML patient cells (S089)
Procedure, shortened: as §1

[12] = test system: primary AML patient cells (S019)
Procedure, shortened: as §1

[13] = test system: primary CLL patient cells (S043)
Procedure, shortened: as §1

[14] = test system: primary AML patient cells (S007)
Procedure, shortened: as §1

[15] = test system: primary DLBCL patient cells (S049)
Procedure, shortened: as §1

[16] = test system: primary AML patient cells (S085)
Procedure, shortened: as §1

[17] = test system: primary AML patient cells (S081)
Procedure, shortened: as §1

O=C(Nc1nc2ccccc2n1CCN1CCOCC1)c1cccc([N+](=O)[O-])c1 [IRAK-1/4 INHIBITOR I]
viability ([1]; 0.016 µM): 1.05 | viability ([1]; 0.08 µM): 1.25 | viability ([1]; 0.4 µM): 1.02 | viability ([1]; 2 µM): 1.07 | viability ([1]; 10 µM): 1.27 | viability ([2]; 0.016 µM): 0.878 | viability ([2]; 0.08 µM): 0.933 | viability ([2]; 0.4 µM): 0.895 | viability ([2]; 2 µM): 0.885 | viability ([2]; 10 µM): 1.02 | viability ([3]; 0.016 µM): 0.911 | viability ([3]; 0.08 µM): 0.936 | viability ([3]; 0.4 µM): 0.951 | viability ([3]; 2 µM): 0.905 | viability ([3]; 10 µM): 0.798 | viability ([4]; 0.016 µM): 0.922 | viability ([4]; 0.08 µM): 0.993 | viability ([4]; 0.4 µM): 0.908 | viability ([4]; 2 µM): 0.954 | viability ([4]; 10 µM): 0.964 | viability ([5]; 0.016 µM): 0.955 | viability ([5]; 0.08 µM): 1.05 | viability ([5]; 0.4 µM): 0.901 | viability ([5]; 2 µM): 0.953 | viability ([5]; 10 µM): 1.03 | viability ([6]; 0.016 µM): 0.904 | viability ([6]; 0.08 µM): 0.962 | viability ([6]; 0.4 µM): 0.889 | viability ([6]; 2 µM): 0.932 | viability ([6]; 10 µM): 0.937 | viability ([7]; 0.016 µM): 0.924 | viability ([7]; 0.08 µM): 0.954 | viability ([7]; 0.4 µM): 0.907 | viability ([7]; 2 µM): 0.735 | viability ([7]; 10 µM): 0.819 | viability ([8]; 0.016 µM): 0.94 | viability ([8]; 0.08 µM): 1.09 | viability ([8]; 0.4 µM): 1.01 | viability ([8]; 2 µM): 1 | viability ([8]; 10 µM): 1.11 | viability ([9]; 0.016 µM): 0.949 | viability ([9]; 0.08 µM): 0.934 | viability ([9]; 0.4 µM): 0.972 | viability ([9]; 2 µM): 1.11 | viability ([9]; 10 µM): 0.878 | viability ([10]; 0.016 µM): 0.952 | viability ([10]; 0.08 µM): 0.975 | viability ([10]; 0.4 µM): 0.887 | viability ([10]; 2 µM): 0.751 | viability ([10]; 10 µM): 0.691 | viability ([11]; 0.016 µM): 0.772 | viability ([11]; 0.08 µM): 0.973 | viability ([11]; 0.4 µM): 0.849 | viability ([11]; 2 µM): 1 | viability ([11]; 10 µM): 0.872 | viability ([12]; 0.016 µM): 0.915 | viability ([12]; 0.08 µM): 1.04 | viability ([12]; 0.4 µM): 0.913 | viability ([12]; 2 µM): 0.867 | viability ([12]; 10 µM): 0.909 | viability ([13]; 0.016 µM): 0.825 | viability ([13]; 0.08 µM): 0.885 | viability ([13]; 0.4 µM): 0.838 | viability ([13]; 2 µM): 0.845 | viability ([13]; 10 µM): 0.861 | viability ([14]; 0.016 µM): 1.01 | viability ([14]; 0.08 µM): 0.989 | viability ([14]; 0.4 µM): 0.788 | viability ([14]; 2 µM): 0.469 | viability ([14]; 10 µM): 0.292 | viability ([15]; 0.016 µM): 0.936 | viability ([15]; 0.08 µM): 0.955 | viability ([15]; 0.4 µM): 0.834 | viability ([15]; 2 µM): 0.833 | viability ([15]; 10 µM): 0.821 | viability ([16]; 0.016 µM): 0.957 | viability ([16]; 0.08 µM): 0.985 | viability ([16]; 0.4 µM): 1.05 | viability ([16]; 2 µM): 1.04 | viability ([16]; 10 µM): 1.02 | viability ([17]; 0.016 µM): 0.864 | viability ([17]; 0.08 µM): 0.93 | viability ([17]; 0.4 µM): 0.907 | viability ([17]; 2 µM): 0.93 | viability ([17]; 10 µM): 0.915
